Measurements as given in ChEMBL document CHEMBL5728268, “Substituted tricyclic heterocyclic compounds and use thereof” (2021).

target: Tyrosine-protein kinase JAK2 (Homo sapiens, UniProt O60674); assay: JAK2 Assay: JAK2 (5-20 mU diluted in 50 mM Tris pH 7.5, 0.1 mM EGTA, 0.05% 0-mercaptoethanol, 1 mg/ml BSA) is assayed against PDKtide ([…]-[…]) in a final volume of 25.5 μl containing 50 mM Tris pH 7.5, 0.1 mM EGTA, 0.05% 0-mercaptoethanol, 100 μM substrate peptide, 10 mM magnesium acetate and 0.005 mM [33P-γ-ATP] (50-1000 cpm/pmole) and incubated for 30 min at room temperature Assays are stopped by addition of 5 μl of 0.5 M (3%) orthophosphoric acid and then harvested onto P81 Unifilter plates with a wash buffer of 50 mM orthophosphoric acid.
Sequence (O60674 whole entry): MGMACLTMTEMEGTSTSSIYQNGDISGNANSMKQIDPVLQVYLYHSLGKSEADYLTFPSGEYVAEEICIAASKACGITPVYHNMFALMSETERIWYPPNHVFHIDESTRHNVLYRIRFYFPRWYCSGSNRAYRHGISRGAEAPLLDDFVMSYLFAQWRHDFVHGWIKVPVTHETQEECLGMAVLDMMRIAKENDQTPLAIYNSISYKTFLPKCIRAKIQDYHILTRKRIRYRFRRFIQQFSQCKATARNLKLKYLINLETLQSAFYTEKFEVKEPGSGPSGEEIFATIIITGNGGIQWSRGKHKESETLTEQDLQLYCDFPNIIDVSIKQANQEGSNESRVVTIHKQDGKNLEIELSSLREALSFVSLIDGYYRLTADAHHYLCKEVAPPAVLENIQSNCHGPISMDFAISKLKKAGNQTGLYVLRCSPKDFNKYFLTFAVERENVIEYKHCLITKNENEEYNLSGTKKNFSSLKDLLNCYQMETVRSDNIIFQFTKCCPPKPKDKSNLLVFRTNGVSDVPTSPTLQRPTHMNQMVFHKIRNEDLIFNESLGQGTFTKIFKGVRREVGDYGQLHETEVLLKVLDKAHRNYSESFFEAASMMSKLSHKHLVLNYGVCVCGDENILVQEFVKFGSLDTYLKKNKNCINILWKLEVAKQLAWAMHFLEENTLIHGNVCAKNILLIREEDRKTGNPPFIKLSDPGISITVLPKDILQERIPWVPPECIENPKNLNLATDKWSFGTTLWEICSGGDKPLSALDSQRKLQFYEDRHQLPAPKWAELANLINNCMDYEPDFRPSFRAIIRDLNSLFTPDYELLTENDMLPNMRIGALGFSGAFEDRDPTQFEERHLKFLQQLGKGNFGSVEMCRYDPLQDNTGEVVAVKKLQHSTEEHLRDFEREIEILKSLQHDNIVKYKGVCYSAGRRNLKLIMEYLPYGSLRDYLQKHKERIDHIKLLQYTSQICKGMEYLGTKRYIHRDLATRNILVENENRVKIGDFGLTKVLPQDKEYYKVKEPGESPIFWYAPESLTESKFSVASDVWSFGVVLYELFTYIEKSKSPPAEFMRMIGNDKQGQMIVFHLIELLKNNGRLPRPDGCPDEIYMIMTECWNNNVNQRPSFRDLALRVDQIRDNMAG

| IC50 | Structure (SMILES) |
| --- | --- |
| 2.1 µM | CC(C)n1ncc2c1CN(C1CCOCC1)c1nccc3[nH]nc-2c13 |
| 1.5 µM | CCn1ncc2c1CN(C1CCOCC1)c1nccc3[nH]nc-2c13 |
| 5.4 µM | CCn1ncc2c1CN(C1CCN(C(C)C)CC1)c1nccc3[nH]nc-2c13 |
| 0.92 µM | Cn1ncc2c1CN(C1CCOCC1)c1nccc3[nH]nc-2c13 |
| 1.7 µM | CCc1cc2c(cn1)CN(C1CCOCC1)c1nccc3[nH]nc-2c13 |
| 4.5 µM | CC(C)N1CCC(N2Cc3c(cnn3C)-c3n[nH]c4ccnc2c34)CC1 |
| 6.6 µM | c1cc2[nH]nc3c2c(n1)N(C1CCCC1)CCC3 |
| 0.9 µM | Fc1ccc2c(c1)-c1n[nH]c3ccnc(c13)N(C1CCOCC1)C2 |

| Structure (SMILES) | IC50 |
| --- | --- |
| Cc1cc2c(cn1)CN(C1CCOCC1)c1nccc3[nH]nc-2c13 | 0.89 µM |
